Test system: luciferase light signal from pIB29EL (yopE-luxAB)
Assay: microbe, parasite or virus in culture
Format: cell-based, Yersinia pseudotuberculosis
Conditions: for inhibition at 10 µM: read-out: Inhibition (%) of the luciferase light signal, 10 μM; for inhibition at 20 µM: read-out: Inhibition (%) of the luciferase light signal, 20 μM; for inhibition at 50 µM: read-out: Inhibition (%) of the luciferase light signal, 50 μM; for inhibition at 100 µM: read-out: Inhibition (%) of the luciferase light signal, 100 μM; for inhibition at 5 µM: read-out: Inhibition (%) of the luciferase light signal, 5 μM
[1] = Yersinia pseudotuberculosis, strain pIB29EL, Table 2C
[2] = 10 μM, strain pIB29EL, Table 2C
[3] = 20 μM, strain pIB29EL, Table 2C
[4] = 50 μM, strain pIB29EL, Table 2C
[5] = 100 μM, strain pIB29EL, Table 2C

Compound	Inhibition (%) of the luciferase light signal (10 μM, pIB29EL, Table 2A) [%]	Inhibition (%) of the luciferase light signal (20 μM, pIB29EL, Table 2A) [%]	Inhibition (%) of the luciferase light signal (50 μM, pIB29EL, Table 2A) [%]	Inhibition (%) of the luciferase light signal (100 μM, pIB29EL, Table 2A) [%]	inhibition at 10 µM [1] [%]	inhibition at 20 µM [1] [%]	inhibition at 50 µM [1] [%]	inhibition at 100 µM [1] [%]	inhibition at 5 µM [1] [%]	further results
CC1(C)S[C@@H]2[C@H](NC(=O)C(C(=O)O)c3ccccc3)C(=O)N2[C@H]1C(=O)O (stereo partly shown) [Carbenicillin, reference compound]										IC50 (Yersinia pseudotuberculosis, read-out: IC50 (concentration resulting in 50% reduction of luciferase light emission)): 15 µM; Inhibition of light-emission (in words) (known antibiotics, pIB29EL): dose-dependent inhibition of light-emission
O=C(N/N=C/c1cc(Br)cc(Br)c1O)c1cccnc1 [Compound 7]	25	20	68	93						
O=C(N/N=C/c1c(O)ccc2ccccc12)c1ccccc1 [Compound 9]	9	21	41	49						
C=CCc1cccc(/C=N/NC(=O)c2ccc([N+](=O)[O-])cc2)c1O [Compound 10]	30	49	56	57						
CCCCCCc1cc(/C=N/NC(=O)c2ccc([N+](=O)[O-])cc2)c(O)cc1O [Compound 11]	30	42	69	80						
O=C(N/N=C/c1cc(O)ccc1O)c1ccco1 [Compound 12]	12	16	41	65						
O=C(N/N=C/c1ccc(O)cc1O)c1cc2ccccc2cc1O [Compound 13]	26	47	69	73						
CC(=O)Oc1ccc(I)cc1C(=O)Nc1ccc(Cl)cc1 [Compound 16]										Inhibition (%) of the luciferase light signal (5 μM (first of two columns headed 5), pIB29EL, Table 2B): 65%; Inhibition (%) of the luciferase light signal (5 μM (second of two columns headed 5), pIB29EL, Table 2B): 97%; Inhibition (%) of the luciferase light signal (10 μM, pIB29EL, Table 2B): 98%; Inhibition (%) of the luciferase light signal (20 μM, pIB29EL, Table 2B): 97%
CC(=O)Oc1c(I)cc(I)cc1C(=O)Nc1ccc(F)cc1 [Compound 17]	36	42	89	90						
CC(=O)Oc1c(I)cc(I)cc1C(=O)Nc1ccccc1 [Compound 18]	11	51	70	62						
CC(=O)Oc1c(Br)cc(Br)cc1C(=O)Nc1ccccc1F [Compound 19]	0	0	45	70						
O=C(COc1ccccc1)N/N=C/c1c(O)ccc2ccccc12 [Compound 20]					2	5	19	48		
C/C(=N\NC(=O)c1ccc([N+](=O)[O-])cc1)c1cc(Br)cc(Br)c1O [Compound 21]					21	18	44	57		
O=C(Nc1ccc(Cl)cc1)c1cc(I)ccc1O [Compound 23]										Inhibition (%) of the luciferase light signal (5 μM, strain pIB29EL, Table 2C): 70%; Inhibition (%) of the luciferase light signal [2]: 75%; Inhibition (%) of the luciferase light signal [3]: 83%; Inhibition (%) of the luciferase light signal [4]: 80%; Inhibition (%) of the luciferase light signal [5]: 78%
O=C(Nc1ccc(Cl)cc1)c1ccccc1O [Compound 24]					30	73	90	88	7	
O=C(Nc1ccc(Cl)cc1)c1cc(I)cc(I)c1O [Compound 25]					92	93	100	98	80	
O=C(Nc1ccc(SC(F)(F)F)cc1)c1cc(I)cc(I)c1O [Compound 26]					15	41	84	93	15	
O=C(Nc1ccccc1F)c1cc(Br)cc(Br)c1O [Compound 27]					3	1	13	20	9	
CCCCCCCc1ccc(NC(=O)c2cc(I)cc(I)c2O)cc1 [Compound 28]					90	99	99	99	67	
CC(C)(C)c1ccc(NC(=O)c2cc(I)cc(I)c2O)cc1 [Compound 29]					18	21	30	28	19	
CC(=O)Oc1cc(C)ccc1C(=O)Nc1ccccc1F [Compound 30]					15	35	63	83	14	
O=C(Nc1ccccc1)c1cc(I)cc(I)c1O [Compound 31]										Inhibition (%) of the luciferase light signal (5 μM, strain pIB29EL, Table 2C): 10%; Inhibition (%) of the luciferase light signal [2]: 30%; Inhibition (%) of the luciferase light signal [3]: 60%; Inhibition (%) of the luciferase light signal [4]: 77%; Inhibition (%) of the luciferase light signal [5]: 98%
CC(C)(C)c1ccc(NC(=O)c2c(O)c(Cl)cc(Cl)c2Cl)cc1 [Compound 32]					23	37	42	46	14	
CC(=O)Oc1c(I)cc(I)cc1C(=O)Nc1ccc(SC(F)(F)F)cc1 [Compound 33]					70	68	69	71	71	
CC(=O)Oc1c(Cl)cc(Cl)c(Cl)c1C(=O)Nc1ccc(SC(F)(F)F)cc1 [Compound 47]										Inhibition (%) of the luciferase light signal (5 μM, strain pIB29EL, Table 2C): 55%; Inhibition (%) of the luciferase light signal [2]: 61%; Inhibition (%) of the luciferase light signal [3]: 73%; Inhibition (%) of the luciferase light signal [4]: 90%; Inhibition (%) of the luciferase light signal [5]: 90%
O=C(Nc1cc(Cl)ccc1F)c1cc(I)cc(I)c1O [Compound 48]										Inhibition (%) of the luciferase light signal (5 μM, strain pIB29EL, Table 2C): 36%; Inhibition (%) of the luciferase light signal [2]: 75%; Inhibition (%) of the luciferase light signal [3]: 88%; Inhibition (%) of the luciferase light signal [4]: 89%; Inhibition (%) of the luciferase light signal [5]: 88%
CC(=O)Oc1c(I)cc(I)cc1C(=O)Nc1cc(Cl)ccc1F [Compound 49]										Inhibition (%) of the luciferase light signal (5 μM, strain pIB29EL, Table 2C): 24%; Inhibition (%) of the luciferase light signal [2]: 34%; Inhibition (%) of the luciferase light signal [3]: 63%; Inhibition (%) of the luciferase light signal [4]: 89%; Inhibition (%) of the luciferase light signal [5]: 88%
O=C(Nc1ccc(Br)cc1)c1cc(I)ccc1O [Compound 50]										Inhibition (%) of the luciferase light signal (5 μM, strain pIB29EL, Table 2C): 57%; Inhibition (%) of the luciferase light signal [2]: 69%; Inhibition (%) of the luciferase light signal [3]: 62%; Inhibition (%) of the luciferase light signal [4]: 72%; Inhibition (%) of the luciferase light signal [5]: 70%
CC(=O)Oc1ccc(I)cc1C(=O)Nc1ccc(Br)cc1 [Compound 51]										Inhibition (%) of the luciferase light signal (5 μM, strain pIB29EL, Table 2C): 91%; Inhibition (%) of the luciferase light signal [2]: 87%; Inhibition (%) of the luciferase light signal [3]: 89%; Inhibition (%) of the luciferase light signal [4]: 87%; Inhibition (%) of the luciferase light signal [5]: 85%
